The results in this text go back to patent US10213427B2 (Incyte Corporation, priority 2010, dated 2019).

What is called IC50 is the concentration needed to halve the response being measured.

Molecules are shown by their SMILES.

Chain of FGFR3 enzyme (Millipore) (P22607 23-806): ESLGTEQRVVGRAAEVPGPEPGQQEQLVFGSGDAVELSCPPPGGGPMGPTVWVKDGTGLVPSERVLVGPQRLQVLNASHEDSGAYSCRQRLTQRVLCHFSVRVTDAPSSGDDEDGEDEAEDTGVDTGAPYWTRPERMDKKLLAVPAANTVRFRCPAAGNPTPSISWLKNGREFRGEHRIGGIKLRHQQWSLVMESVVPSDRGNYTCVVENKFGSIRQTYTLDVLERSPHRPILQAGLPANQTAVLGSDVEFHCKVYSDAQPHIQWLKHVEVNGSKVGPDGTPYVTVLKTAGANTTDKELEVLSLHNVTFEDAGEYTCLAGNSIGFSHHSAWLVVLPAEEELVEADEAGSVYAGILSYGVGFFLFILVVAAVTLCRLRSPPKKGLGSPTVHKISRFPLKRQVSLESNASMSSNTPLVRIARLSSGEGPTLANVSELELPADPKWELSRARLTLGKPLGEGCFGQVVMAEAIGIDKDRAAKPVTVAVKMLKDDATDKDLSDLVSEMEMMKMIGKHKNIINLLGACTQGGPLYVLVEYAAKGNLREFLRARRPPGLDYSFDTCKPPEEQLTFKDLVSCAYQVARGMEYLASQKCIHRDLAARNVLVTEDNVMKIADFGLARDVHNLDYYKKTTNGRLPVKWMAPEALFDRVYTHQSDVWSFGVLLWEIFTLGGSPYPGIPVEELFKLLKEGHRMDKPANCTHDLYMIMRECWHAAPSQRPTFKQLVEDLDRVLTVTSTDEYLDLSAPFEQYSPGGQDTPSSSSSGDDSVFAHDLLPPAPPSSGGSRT

In the assay the target is FGFR3 enzyme (Millipore) (Homo sapiens (Human), UniProt P22607). Briefly: FGFR3 Enzymatic Assay. The conditions noted are these: FRET peptide phosphorylation, 140 μM ATP. It counts as biochemical. The method, then:
The inhibitor potency of compounds of the invention was measured in an enzyme assay that measures peptide phosphorylation using FRET measurements to detect product formation. Inhibitors were serially diluted in DMSO and a volume of 0.5 μL was transferred to the wells of a 384-well plate. A 10 μL volume of FGFR3 enzyme (Millipore) diluted in assay buffer (50 mM HEPES, 10 mM MgCl2, 1 mM EGTA, 0.01% Tween-20, 5 mM DTT, pH 7.5) was added to the plate and pre-incubated for 5-10 minutes. Appropriate controls (enzyme blank and enzyme with no inhibitor) were included on the plate. […] The plate was incubated at 25° C. for 1 hr. […] The plate was allowed to equilibrate for ˜1 hr before scanning the wells on a PheraStar plate reader.
GraphPad prism3 was used to analyze the data. The IC50 values were derived by fitting the data to the equation for a sigmoidal dose-response with a variable slope. Y=Bottom+(Top−Bottom)/(1+10^((Log IC50−X)*HillSlope)) where X is the logarithm of concentration and Y is the response.
Compound `O=C(NCC(F)(F)F)Nc1cccc(-c2cnc3cc(-c4cnn(C5CCN(C(=O)N6CCOCC6)CC5)c4)cnn23)c1` [Example 37, N-[3-(7-{1-[1-(morpholin-4-ylcarbonyl)piperidin-4-yl]-1H-pyrazol-4-yl}imidazo[1,2-b]pyridazin-3-yl)phenyl]-N′-(2,2,2-trifluoroethyl)urea] yielded a 50% inhibitory concentration (IC50) of less than 10 nM.
`O=C(NCC(F)(F)F)Nc1cccc(-c2cnc3cc(-c4ccc(N5CCN(C(=O)N6CCCC6)CC5)nc4)cnn23)c1` [Example 53, N-[3-(7-{6-[4-(pyrrolidin-1-ylcarbonyl)piperazin-1-yl]pyridin-3-yl}imidazo[1,2-b]pyridazin-3-yl)phenyl]-N′-(2,2,2-trifluoroethyl)urea] displayed an IC50 of less than 10 nM.
The result for `CNC(=O)Nc1cccc(-c2cnc3cc(-c4cccc(C(=O)NCc5ccccc5F)c4)cnn23)c1` [Example 96, N-(2-Fluorobenzyl)-3-[3-(3-{[(methylamino)carbonyl]amino}phenyl)imidazo[1,2-b]pyridazin-7-yl]benzamide] reads greater than 25 nM.
The result for `N#CC1(C(=O)N2CCC(n3cc(-c4cnn5c(-c6cccc(NC(=O)NCC(F)(F)F)c6)cnc5c4)cn3)CC2)CC1` [Example 45, N-{3-[7-(1-{1-[(1-Cyanocyclopropyl)carbonyl]piperidin-4-yl}-1H-pyrazol-4-yl)imidazo[1,2-b]pyridazin-3-yl]phenyl}-N′-(2,2,2-trifluoroethyl)urea] reads less than 10 nM; that for `CN1CCC(CNC(=O)c2ccc(-c3ccc4c(c3)ncn4-c3cccc(NC(=O)NCC(F)(F)F)c3)cc2)CC1` [Example 10, N-[(1-Methylpiperidin-4-yl)methyl]-4-{1-[3-({[(2,2,2-trifluoroethyl)amino]carbonyl}amino)phenyl]-1H-benzimidazol-5-yl}benzamide], less than 10 nM; that for `CC(C(=O)N(C)C1CCOCC1)n1cc(-c2cnn3c(-c4cccc(NC(=O)NCC(F)(F)F)c4)cnc3c2)cn1` (centres unmarked) [Example 59, N-Methyl-N-(tetrahydro-2H-pyran-4-yl)-2-(4-{3-[3-({[(2,2,2-trifluoroethyl)amino]carbonyl}amino)phenyl]imidazo[1,2-b]pyridazin-7-yl}-1H-pyrazol-1-yl)propanamide], less than 10 nM.
`CC(C(=O)N(C)C)n1cc(-c2cnn3c(-c4cccc(NC(=O)NCC(F)(F)F)c4)cnc3c2)cn1` (centres unmarked) [Example 56, N,N-Dimethyl-2-(4-{3-[3-({[(2,2,2-trifluoroethyl)amino]carbonyl}amino)phenyl]imidazo[1,2-b]pyridazin-7-yl}-1H-pyrazol-1-yl)propanamide] had an IC50 of less than 10 nM.
`O=C(NCC(F)(F)F)Nc1cccc(-c2cnc3cc(-c4cnn(C5CCN(C(=O)CC6CCCC6)CC5)c4)cnn23)c1` [Example 35, N-[3-(7-{1-[1-(cyclopentylacetyl)piperidin-4-yl]-1H-pyrazol-4-yl}imidazo[1,2-b]pyridazin-3-yl)phenyl]-N′-(2,2,2-trifluoroethyl)urea] yielded an IC50 of less than 10 nM.
Consider `CC(C(=O)N1CC[C@H](O)C1)c1ccc(-c2cnn3c(-c4cccc(NC(=O)NCC(F)(F)F)c4)cnc3c2)cc1` (stereo partly drawn) [Example 101, N-{3-[7-(4-{2-[(3S)-3-Hydroxypyrrolidin-1-yl]-1-methyl-2-oxoethyl}phenyl)imidazo[1,2-b]pyridazin-3-yl]phenyl}-N′-(2,2,2-trifluoroethyl)urea], for which the IC50 is less than 10 nM.
For `CC(CC#N)n1cc(-c2cnn3c(-c4cccc(NC(=O)NCC(F)(F)F)c4)cnc3c2)cn1` (centres unmarked) [Example 89, N-(3-{7-[1-(2-Cyano-1-methylethyl)-1H-pyrazol-4-yl]imidazo[1,2-b]pyridazin-3-yl}phenyl)-N′-(2,2,2-trifluoroethyl)urea], the 50% inhibitory concentration (IC50) is less than 10 nM.
The same measure for `O=C(NCC(F)(F)F)Nc1cccc(-c2cnc3cc(-c4cnn(C5CCN(C(=O)C(O)C(F)(F)F)CC5)c4)cnn23)c1` (centres unmarked) [Example 49, N-(2,2,2-trifluoroethyl)-N′-[3-(7-{1-[1-(3,3,3-trifluoro-2-hydroxypropanoyl)piperidin-4-yl]-1H-pyrazol-4-yl}imidazo[1,2-b]pyridazin-3-yl)phenyl]urea]: less than 10 nM; for `CC(C(=O)NCCN1CCOCC1)c1ccc(-c2cnn3c(-c4cccc(NC(=O)NCC(F)(F)F)c4)cnc3c2)cc1` (centres unmarked) [Example 107, N-(2-Morpholin-4-ylethyl)-2-(4-{3-[3-({[(2,2,2-trifluoroethyl)amino]carbonyl}amino)phenyl]imidazo[1,2-b]pyridazin-7-yl}phenyl)propanamide]: less than 10 nM.
The result for `COCC(=O)N1CCC(n2cc(-c3cnn4c(-c5cccc(NC(=O)NCC(F)(F)F)c5)cnc4c3)cn2)CC1` [Example 30, N-[3-(7-{1-[1-(Methoxyacetyl)piperidin-4-yl]-1H-pyrazol-4-yl}imidazo[1,2-b]pyridazin-3-yl)phenyl]-N′-(2,2,2-trifluoroethyl)urea] reads less than 10 nM; that for `Cn1ccc(S(=O)(=O)N2CCC(n3cc(-c4ccc5c(c4)ncn5-c4cccc(NC(=O)NCC(F)(F)F)c4)cn3)CC2)n1` [Example 24, N-{3-[5-(1-{1-[(1-Methyl-1H-pyrazol-3-yl)sulfonyl]piperidin-4-yl}-1H-pyrazol-4-yl)-1H-benzimidazol-1-yl]phenyl}-N′-(2,2,2-trifluoroethyl)urea], less than 10 nM.
The same measure for `O=C(NCC(F)(F)F)Nc1cccc(-c2cnc3cc(-c4cnn(C5CCN(C(=O)CC6CC6)CC5)c4)cnn23)c1` [Example 41, N-[3-(7-{1-[1-(Cyclopropylacetyl)piperidin-4-yl]-1H-pyrazol-4-yl}imidazo[1,2-b]pyridazin-3-yl)phenyl]-N′-(2,2,2-trifluoroethyl)urea]: less than 10 nM; for `Cn1ccc(S(=O)(=O)N2CC(CC#N)(n3cc(-c4cnn5c(-c6cccc(NC(=O)NCC(F)(F)F)c6)cnc5c4)cn3)C2)n1` [Example 73, N-{3-[7-(1-{3-(Cyanomethyl)-1-[(1-methyl-1H-pyrazol-3-yl)sulfonyl]azetidin-3-yl}-1H-pyrazol-4-yl)imidazo[1,2-b]pyridazin-3-yl]phenyl}-N′-(2,2,2-trifluoroethyl)urea]: less than 10 nM.
Take `O=C(NCC(F)(F)F)Nc1cccc(-n2cnc3cc(-c4cnn(C5CCN(C(=O)C6CCCO6)CC5)c4)ccc32)c1` (centres unmarked) [Example 29, N-[3-(5-{1-[1-(Tetrahydrofuran-2-ylcarbonyl)piperidin-4-yl]-1H-pyrazol-4-yl}-1H-benzimidazol-1-yl)phenyl]-N′-(2,2,2-trifluoroethyl)urea]: the concentration for half-maximal inhibition (IC50) is less than 10 nM.
In the case of `O=C(NCC(F)(F)F)Nc1cccc(-c2cnc3cc(-c4cnn(C5CCN(C(=O)CCC6CC6)CC5)c4)cnn23)c1` [Example 46, N-[3-(7-{1-[1-(3-Cyclopropylpropanoyl)piperidin-4-yl]-1H-pyrazol-4-yl}imidazo[1,2-b]pyridazin-3-yl)phenyl]-N′-(2,2,2-trifluoroethyl)urea], the IC50 was less than 10 nM.
The same measure for `O=C(NCC(F)(F)F)Nc1cccc(-n2cnc3cc(-c4cccc(C(=O)NCC5CC5)c4)ccc32)c1` [Example 1]: less than 10 nM.
The result for `N#CCC1(n2cc(-c3cnn4c(-c5cccc(NC(=O)NCC(F)(F)F)c5)cnc4c3)cn2)CN(CC2CC2)C1` [Example 83, N-[3-(7-{1-[3-(Cyanomethyl)-1-(cyclopropylmethyl)azetidin-3-yl]-1H-pyrazol-4-yl}imidazo[1,2-b]pyridazin-3-yl)phenyl]-N′-(2,2,2-trifluoroethyl)urea] reads 10 to 25 nM; that for `O=C(NCC(F)(F)F)Nc1cccc(-c2cnc3cc(-c4cnn(C5CCN(C(=O)Nc6cccnc6)CC5)c4)cnn23)c1` [Example 38, N-Pyridin-3-yl-4-(4-{3-[3-({[(2,2,2-trifluoroethyl)amino]carbonyl}amino)phenyl]imidazo[1,2-b]pyridazin-7-yl}-1H-pyrazol-1-yl)piperidine-1-carboxamide], less than 10 nM.
As for `CN(C)CC(=O)N1CC(CC#N)(n2cc(-c3cnn4c(-c5cccc(NC(=O)NCC(F)(F)F)c5)cnc4c3)cn2)C1` [Example 76, N-{3-[7-(1-{3-(Cyanomethyl)-1-[(dimethylamino)acetyl]azetidin-3-yl}-1H-pyrazol-4-yl)imidazo[1,2-b]pyridazin-3-yl]phenyl}-N′-(2,2,2-trifluoroethyl)urea], the IC50 was less than 10 nM.
The result for `CC(C(=O)N(C)C)c1ccc(-c2ccc3c(c2)ncn3-c2cccc(NC(=O)NCC(F)(F)F)c2)cc1` (centres unmarked) [Example 15, N,N-Dimethyl-2-(4-{1-[3-({[(2,2,2-trifluoroethyl)amino]carbonyl}amino)phenyl]-1H-benzimidazol-5-yl}phenyl)propanamide] reads less than 10 nM; that for `CC(C(=O)NCC1CC1)c1ccc(-c2ccc3c(c2)ncn3-c2cccc(NC(=O)NCC(F)(F)F)c2)cc1` (centres unmarked) [Example 16, N-(Cyclopropylmethyl)-2-(4-{{1-[3-(([(2,2,2-trifluoroethyl)amino]carbonyl)}amino)phenyl]-1H-benzimidazol-5-yl}phenyl)propanamide], less than 10 nM.
On to `N#CCC(C1CC1)n1cc(-c2cnn3c(-c4cccc(NC(=O)NCC(F)(F)F)c4)cnc3c2)cn1` (centres unmarked) [Example 92, N-(3-{7-[1-(2-Cyano-1-cyclopropylethyl)-1H-pyrazol-4-yl]imidazo[1,2-b]pyridazin-3-yl}phenyl)-N′-(2,2,2-trifluoroethyl)urea], for which the concentration for half-maximal inhibition (IC50) is less than 10 nM.
The same measure for `O=C(NCC(F)(F)F)Nc1cccc(-n2cnc3cc(-c4cnn(C5CCN(C(=O)CC6CC6)CC5)c4)ccc32)c1` [Example 27, N-[3-(5-{1-[1-(Cyclopropylacetyl)piperidin-4-yl]-1H-pyrazol-4-yl}-1H-benzimidazol-1-yl)phenyl]-N′-(2,2,2-trifluoroethyl)urea]: less than 10 nM.
